Literature values as cited in US7300682B2, “Method of preparation and use of coconut water in mamalian tissue nourishment growth and healthy maintenance” (Sabinsa Corporation, priority 2000, dated 2007).

System: Abelmoschus esculetus L and Solanum gilo L
Conditions: 100 mg/L

Q: With C=C1C[C@]23C[C@@]1(O)CC[C@H]2[C@@]12C=C[C@H](O)[C@@](C)(C(=O)O1)[C@H]2[C@@H]3C(=O)O [GA3, gibberelic acid] as the compound, how does the “effect on plant height, yield, chlorophyll and vitamin contents” value read?
A: The value was “significantly effective”.
